Patent US10821078B2, “Nanostructure enhanced targeting (NSET) of inflammatory cells” (Northwestern University, priority 2016, dated 2020)
Like-named read-outs stand apart in the source and are kept apart here.

Key:
[1] = tested on: macrophages (CD11b+F4/80+); settings: mouse, in vivo
Description: Multi-color flow cytometry was performed to evaluate the uptake of NS of the present invention within cells of the innate and adaptive immune system. Mice were administered DyLight 650-labeled PS, MC and FM by tail vein injection. After different time points (1 h, 24 h, and 48 h), spleen, LN, liver, kidneys, and blood were collected and prepared into single cell suspensions for analysis (gating strategies shown in FIG. 11). For all organs evaluated, NS were predominantly taken up by phagocytic cells in the MPS (FIG. 3, FIG. 12).
C57BL/6 female mice (n=6-8), were injected intravenously with 150 μl of MC, PS, and FM with block copolymer concentration of 15 mg/mL. At different time points (1 h, 24 h, and 48 h post-injection), mice were anesthetized by intraperitoneal (i.p.) injection of a mixture of Ketamine/Xylazine followed by exsanguination. Blood was collected by retro-orbital puncture with BD Microtainer tubes and dipotassium EDTA (BD Biosciences). Serum was separated by centrifugation at 3000 rpm at 4° C. for 25 min. Fluorescence intensity of each nanostructure was normalized by diluting NS solutions in PBS and measuring the fluorescence using a spectrophotometer. The fluorescence of blood serum was measured with an excitation of 655 nm and the emission of 675 nm and correlated with the normalized standard curve for each DyLight 650-labeled NS. To prepare white blood cell suspensions, blood cells were washed twice with 10 ml PBS and treated 3× with ammonium-chloride-potassium (ACK) lysis buffer (Invivogen) to eliminate red blood cells. Liver, spleen, LN (popliteal, inguinal, axillary and brachial), and kidneys were harvested, gently dissociated and incubated in a 12-well plate with each well of 2 ml Collagenase D (2 mg/mL) for 45 min at 37° C. and 5% CO2. Single-cell suspensions were prepared by mechanical dissociation and passing through a 70 μm cell strainer. Anti-mouse CD16/CD32 was used to block FcRs and Zombie Aqua fixable viability dye was used to determine live/dead cells. For flow cytometric analysis, cells were stained using cocktails of fluorophore-conjugated anti-mouse antibodies: panel 1: CD45-FITC, CD3-APC/Cy7, CD4-PE, CD8α-PE/Cy7, NK1.1-PerCP-Cy5.5, CD19-Pacific Blue; panel 2: I-A/I-E-FITC, CD11c-Pacific Blue, CD8α-PE-Cy7, CD11b-PerCP-Cy5.5, CD45RB/B220-PE, Gr-1-APC-Cy7; and panel 3: F4/80-FITC, CD11c-Pacific Blue, CD11b-PerCP-Cy5.5, Ly6C-APC/Cy7, Ly6G-PE/Cy7. After washes, cells were fixed by IC cell fixation buffer (Biosciences). Flow cytometry was performed with FACSDiva on a LSRII flow cytometer (BD Biosciences) and data were analyzed with FlowJo software.

[2] = Organ-level biodistribution of ICG-loaded nanostructures by IVIS NIR fluorescence imaging; type: in vivo, mouse; settings: 24 h after I.V. injection, C57BL/6 mice
Source text: Nanomaterials have been widely used to deliver therapeutic agents in vivo, and their tissue distribution can either limit or enhance such applications. ICG-loaded MC, PS and FM were therefore assembled at a 33:1 molar ratio of copolymer:dye, and their biodistributions were compared to control injections of free form ICG and PBS in naïve C57BL/6 mice. Liver, spleen, kidneys, lung and heart were harvested and investigated with an IVIS optical imaging system. Following I.V. injection, ICG usually has a half-life of less than 10 minutes primarily due to removal from circulation in the liver.
The ICG-loaded MC, PS and FM were prepared with the optimal molar ratio of PEG-bl-PPS:ICG (33:1) and suspended in PBS. Free ICG (50 μg/mL in PBS solution) served as a control. C57BL/6 mice (n=6) were injected intravenously with 150 μl of free ICG, MC, PS and FM (7.5 μg of loaded ICG in each sample). At different time points (1 h, 24 h, and 48 h post-injection), whole-body NIR fluorescence imaging was performed using an IVIS Lumina (Center for Advanced Molecular Imaging, Northwestern University) with λexc=745 nm, λem=810 nm, exposure time=2 s and f/stop=2. For organ NIR fluorescence imaging, animals were euthanized by carbon dioxide and liver, spleen, kidney, heart, and lung were harvested in petri dishes and imaged by the IVIS Lumina with the same parameters as previous.

[3] = removal from circulation in the liver; cited from earlier work

Compound: PEG44-bl-PPS45 [FM]
- percentage of macrophages nanostructure positive [1]: 25%

Compound: CC1(C)C(/C=C/C=C/C=C/C=C2\N(CCCCS(=O)(=O)O)c3ccc4ccccc4c3C2(C)C)=[N+](CCCCS(=O)(=O)[O-])c2ccc3ccccc3c21 [ICG, indocyanine green]
- ICG fluorescence in organs [2]: no observable fluorescence
- half-life following I.V. injection [3]: less than 10 minutes

Compound: PEG45-bl-PPS20 [MC]
- percentage of macrophages nanostructure positive [1]: over 90%

Compound: PEG17-bl-PPS30
- decrease in uptake by liver macrophages on switching from MC to PS morphology [1]: over 50%
- percentage of macrophages nanostructure positive [1]: 40%
- percentage of macrophages nanostructure positive ([1]; iv): 30%-40%
